Results from US6534070B1, “Composition with azelaic acid” (Schering Aktiengesellschaft, priority 1997, dated 2003).

Format: in vitro ADME, hairless mice (MF1 hr/hr Ola/Hsd)
Conditions: MF1 hr/hr Ola/Hsd (hairless), mouse, 24 h
Source text: The percutaneous resorption of azelaic acid was examined from hydrogel formulations according to the invention in comparison to Skinoren^(R) cream. The purpose of the study was to describe the bioavailability of azelaic acid in the skin, the penetration of azelaic acid through the skin and the dermal metabolism of azelaic acid. In this respect, various preparations that contain ^14C-labeled azelaic acid were applied in the in vitro model of the FRANZ diffusion chamber on the intact complete skin of hairless mice (MF1 hr/hr Ola/Hsd; supplier: Winkelmann, Germany). An amount of 10 to 15 mg of the following compositions was applied to a skin area of 2 cm^2:
The time behavior of the ^14C-azelaic acid was measured in the acceptor medium (Hepes Hanks Balanced Salt Solution: HHBSS), which flows along under the skin, at two-hour intervals over a period of 24 hours. In addition, at the end of each experiment, the radioactivity on the skin surface, in the stratum corneum and in the remaining skin was determined. […]
The ^14C-azelaic acid found in the skin at the end of the experiment was metabolized only to a proportion of 3 to 11%. Therefore, the data on the radioactivity in the skin can virtually be equated to the concentration of unchanged azelaic acid.

- proportion of 14C-azelaic acid found in the skin that was metabolized: 3 to 11%
Structure (SMILES): O=C(O)CCCCCCCC(=O)O [^14C-azelaic acid, azelaic acid]
